The results in this text go back to patent publication US8557796B2, “Substituted 1-oxa-2,8-diaza-spiro [4,5] dec-2-ene derivatives and related treatment methods” (Gruenenthal GmbH, priority 2001, dated 2013).

This assay concerns the target T1, NA transporter (Rattus norvegicus, UniProt Q9WTR4).
T1 construct: synaptosomes from rat brain regions were freshly isolated; from tissue; host or cells: P2 synaptosome fraction from hypothalamus of male rat brain
The assay is described as follows: Noradrenalin uptake inhibition (NA-uptake) in synaptosomes. The class given is biochemical. Particulars: rat hypothalamus synaptosomes. From the text: Tests on Noradrenalin Uptake Inhibition (NA-Uptake Inhibition)
In order to be able to carry out these in vitro studies, synaptosomes from rat brain regions were freshly isolated.

T1 sequence (Q9WTR4 1-597): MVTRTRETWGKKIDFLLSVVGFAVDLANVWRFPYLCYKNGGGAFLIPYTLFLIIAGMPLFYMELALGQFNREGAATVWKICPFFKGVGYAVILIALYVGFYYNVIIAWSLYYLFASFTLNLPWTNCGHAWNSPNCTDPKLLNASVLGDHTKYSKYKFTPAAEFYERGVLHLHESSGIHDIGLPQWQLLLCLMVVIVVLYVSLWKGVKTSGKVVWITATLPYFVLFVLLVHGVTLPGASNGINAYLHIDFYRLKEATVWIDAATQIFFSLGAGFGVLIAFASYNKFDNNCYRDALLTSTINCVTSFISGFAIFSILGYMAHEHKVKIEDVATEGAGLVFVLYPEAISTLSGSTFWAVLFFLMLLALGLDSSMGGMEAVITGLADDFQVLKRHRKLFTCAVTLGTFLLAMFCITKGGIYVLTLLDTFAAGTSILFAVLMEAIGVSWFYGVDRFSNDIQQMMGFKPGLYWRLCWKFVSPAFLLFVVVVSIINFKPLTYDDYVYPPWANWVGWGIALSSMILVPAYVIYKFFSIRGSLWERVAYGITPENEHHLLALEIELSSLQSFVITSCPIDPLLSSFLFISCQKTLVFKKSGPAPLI

In general, inhibition refers to the relative decrease from the control value, in per cent. Read a high inhibition as strong suppression. On to `CC(C)CC(NC(=O)C1=NOC2(CCN(S(=O)(=O)c3cccc(C(F)(F)F)c3)CC2)C1)C(=O)OC(C)(C)C` (stereo not shown) [Example 214, 4-methyl-2-{[8-(3-trifluoromethyl-benzenesulphonyl)-1-oxa-2,8-diaza-spiro[4,5]dec-2-ene-3-carbonyl]-amino}-pentanoic acid tert-butyl ester], for which the inhibition at 10 µM was determined as 45%. In the case of `O=C(NCCN1CCCC1)C1=NOC2(CCN(S(=O)(=O)c3ccc(F)c(Cl)c3)CC2)C1` [Example 11], the “NA-uptake, 10 μM, % inhibition” value is 41%. `O=C(Nc1ccccc1)C1=NOC2(CCN(C(=O)c3cccc(Cl)c3Cl)CC2)C1` [Example 172, 8-(2,3-dichloro-benzoyl)-1-oxa-2,8-diaza-spiro[4,5]dec-2-ene-3-carboxylic acid phenylamide] gave an inhibition at 10 µM of 41%.

`O=C(NCC1CC1)C1=NOC2(CCN(C(=O)CCCOc3ccccc3)CC2)C1` [Example 118, 8-(4-phenoxy-butyryl)-1-oxa-2,8-diaza-spiro[4,5]dec-2-ene-3-carboxylic acid cyclopropylmethyl-amide] registered an inhibition at 10 µM of 46%. `CN(C)S(=O)(=O)N1CCC2(CC1)CC(C(=O)NC1CCCC1OCc1ccccc1)=NO2` (stereo not shown) [Example 163, 8-dimethylsulphamoyl-1-oxa-2,8-diaza-spiro[4,5]dec-2-ene-3-acarboxylic cid (2-benzyloxy-cyclopentyl)-amide]: the “NA-uptake, 10 μM, % inhibition” value is 62%. `O=C(NC1CCCC1OCc1ccccc1)C1=NOC2(CCN(S(=O)(=O)c3ccc(F)cc3)CC2)C1` (stereo not shown) [Example 199]: the “NA-uptake, 10 μM, % inhibition” value was determined as 78%. For `O=C(C1=NOC2(CCN(S(=O)(=O)c3cc(Cl)ccc3Cl)CC2)C1)N1CCN(Cc2ccccc2)CC1` [Example 209, (4-benzyl-piperazin-l-yl)-[8-(2,5-dichloro-benzenesulphonyl)-1-oxa-2,8-diaza-spiro[4,5]dec-2-en-3-yl]-methanone], the “NA-uptake, 10 μM, % inhibition” value came out at 51%. Turning to `O=C(NCC1CC1)C1=NOC2(CCN(C(=O)c3ccc(C(F)(F)F)cc3)CC2)C1` [Example 107, 8-(4-trifluoromethyl-benzoyl)-1-oxa-2,8-diaza-spiro[4,5]dec-2-ene-3-carboxylic acid cyclopropylmethyl-amide], 10 µM produced 42% inhibition. `CC(Oc1ccccc1)C(=O)N1CCC2(CC1)CC(C(=O)NCc1ccccc1)=NO2` (stereo not shown) [Example 149, 8-(2-phenoxy-propionyl)-1-oxa-2,8-diaza-spiro[4,5]dec-2-ene-3-carboxylic acid benzylamide] returned an inhibition at 10 µM of 50%. As for `CCN(CCNC(=O)C1=NOC2(CCN(S(=O)(=O)N(C)C)CC2)C1)c1cccc(C)c1` [Example 216, 8-dimethylsulphamoyl-1-oxa-2,8-diaza-spiro[4,5]dec-2-ene-3-carboxylic acid [2-(ethyl-m-tolyl-amino)-ethyl]amide], at 10 µM the inhibition was 40%.

Molecule `O=C(NCc1ccncc1)C1=NOC2(CCN(C(=O)c3ccc(OC(F)(F)F)cc3)CC2)C1` [Example 187, 8-(4-trifluoromethoxy-benzoyl)-1-oxa-2,8-diaza-spiro[4,5]dec-2-ene-3-carboxylic acid (pyridin-4-ylmethyl)-amide] yielded an inhibition at 10 µM of 44%. Regarding `O=C(NC1CCCC1OCc1ccccc1)C1=NOC2(CCN(S(=O)(=O)c3cccs3)CC2)C1` (stereo not shown) [Example 47, 8-(thiophene-2-sulphonyl)-1-oxa-2,8-diaza-spiro[4,5]dec-2-ene-3-carboxylic acid (2-benzyloxy-cyclopentyl)-amide], at 10 µM the inhibition was 92%. As to `O=C(NCc1cccc(Cl)c1)C1=NOC2(CCN(S(=O)(=O)c3cccc(C(F)(F)F)c3)CC2)C1` [Example 132, 8-(3-trifluoromethyl-benzenesulphonyl)-1-oxa-2,8-diaza-spiro[4,5]dec-2-ene-3-carboxylic acid 3-chlorobenzylamide], the inhibition at 10 µM amounted to 46%.
